Values quoted from earlier work as cited in patent US8137734B2, “Preparation of controlled release skeletal muscle relaxant dosage forms” (Aptalis Pharmatech, Inc., priority 2008, dated 2012).

CN(C)CCC=C1c2ccccc2C=Cc2ccccc21 [Cyclobenzaprine]
absorption (after oral administration): well absorbed
half-life (elimination): one to three
